According to the NIST ThermoML archive (doi:10.1016/j.jct.2016.02.016):

Key:
[1] = xn = mol fraction of the nth substance listed; settings: 100 kPa, Liquid; for speed of sound: Frequency=3 MHz, Sing-around technique in a fixed-path interferometer; for mass density: Vibrating tube method
[2] = refractive index (Na D-line) (dimensionless); xn = mol fraction of the nth substance listed; settings: 100 kPa, Liquid, Standard Abbe refractometry

CCC(C)=O [butanone] + CN(C)C=O
Settings | mass density, [1] [kg/m3] | refractive index, [2] | speed of sound, [1] [m/s]
293.15 K, x2 = 0 | 805.06 | 1.37872 | 1212.6
293.15 K, x2 = 0.0482 | 811.508 | 1.3812 | 1224.5
293.15 K, x2 = 0.1051 | 819.281 | 1.3841 | 1238.6
293.15 K, x2 = 0.148 | 825.263 | 1.38629 | 1249.6
293.15 K, x2 = 0.1915 | 831.169 | 1.38843 | 1262.8
293.15 K, x2 = 0.253 | 839.789 | 1.39163 | 1276.1
293.15 K, x2 = 0.3008 | 846.349 | 1.39408 | 1288.2
293.15 K, x2 = 0.3386 | 851.673 | 1.39604 | 1298
293.15 K, x2 = 0.3915 | 859.222 | 1.39872 | 1311.8
293.15 K, x2 = 0.4432 | – | 1.40144 | –
293.15 K, x2 = 0.4887 | 873.095 | 1.40384 | 1337.4
293.15 K, x2 = 0.5514 | 882.097 | – | 1354.1
293.15 K, x2 = 0.5536 | – | 1.40712 | –
293.15 K, x2 = 0.6017 | 889.386 | 1.40972 | 1367.5
293.15 K, x2 = 0.6519 | 896.759 | 1.41237 | 1381.2
293.15 K, x2 = 0.7023 | 904.135 | 1.41495 | 1394.9
293.15 K, x2 = 0.7525 | 911.634 | 1.41752 | 1408.8
293.15 K, x2 = 0.8002 | 918.668 | 1.42009 | 1421.7
293.15 K, x2 = 0.8492 | 926.05 | 1.42274 | 1435.2
293.15 K, x2 = 0.9032 | 934.175 | 1.42553 | 1450.2
293.15 K, x2 = 0.9477 | 940.9 | 1.42785 | 1462.4
298.15 K, x2 = 0 | 799.78 | 1.37605 | 1191.5
298.15 K, x2 = 0.0519 | 806.811 | 1.37886 | 1204.4
298.15 K, x2 = 0.1048 | 814.011 | 1.38152 | 1217.5
298.15 K, x2 = 0.1506 | 820.379 | 1.38397 | 1229.3
298.15 K, x2 = 0.1948 | 826.51 | 1.38631 | 1240.5
298.15 K, x2 = 0.2482 | 834.008 | 1.38913 | 1254.4
298.15 K, x2 = 0.3032 | 841.593 | 1.39213 | 1268.4
298.15 K, x2 = 0.3543 | 848.769 | 1.39479 | 1281.6
298.15 K, x2 = 0.3962 | 854.829 | 1.39697 | 1292.8
298.15 K, x2 = 0.4495 | 862.429 | 1.39982 | 1306.9
298.15 K, x2 = 0.4916 | 868.442 | 1.40199 | 1318
298.15 K, x2 = 0.5536 | 877.384 | 1.40522 | 1334.6
298.15 K, x2 = 0.5946 | 883.427 | 1.40739 | 1345.8
298.15 K, x2 = 0.6572 | 892.579 | 1.41063 | 1362.3
298.15 K, x2 = 0.7034 | 899.388 | 1.41301 | 1375.5
298.15 K, x2 = 0.7461 | 905.863 | 1.41516 | 1387.6
298.15 K, x2 = 0.7965 | 913.261 | 1.41779 | 1401.3
298.15 K, x2 = 0.8488 | 921.083 | 1.42048 | 1415.8
298.15 K, x2 = 0.894 | 928.027 | 1.42276 | 1428.6
298.15 K, x2 = 0.9427 | 935.405 | 1.42542 | 1442.1
303.15 K, x2 = 0 | 794.55 | 1.37351 | 1172
303.15 K, x2 = 0.0496 | 801.341 | 1.37623 | 1184.6
303.15 K, x2 = 0.1068 | 809.288 | 1.37911 | 1199.1
303.15 K, x2 = 0.1478 | 814.925 | 1.38113 | 1209.5
303.15 K, x2 = 0.1836 | 819.8 | 1.38314 | 1218.5
303.15 K, x2 = 0.2521 | 829.427 | 1.38686 | 1236.4
303.15 K, x2 = 0.2943 | 835.351 | 1.38911 | 1248.2
303.15 K, x2 = 0.3532 | 843.706 | 1.39202 | 1262.8
303.15 K, x2 = 0.3938 | 849.516 | 1.39409 | 1273.5
303.15 K, x2 = 0.4538 | 858.11 | 1.39728 | 1289.4
303.15 K, x2 = 0.4969 | 864.319 | 1.39967 | 1301.1
303.15 K, x2 = 0.5486 | 871.924 | 1.40242 | 1315.5
303.15 K, x2 = 0.6028 | 879.882 | 1.40517 | 1330.1
303.15 K, x2 = 0.6517 | 886.955 | 1.4078 | 1343.2
303.15 K, x2 = 0.7023 | 894.541 | 1.4105 | 1357.4
303.15 K, x2 = 0.7483 | 901.328 | 1.41287 | 1369.9
303.15 K, x2 = 0.7995 | 908.942 | 1.41553 | 1384.1
303.15 K, x2 = 0.8514 | 916.844 | 1.41823 | 1399
303.15 K, x2 = 0.8982 | 923.832 | 1.42066 | 1410.9
303.15 K, x2 = 0.946 | 931.082 | 1.4232 | 1425.2
